Measured values: patent US8669249B2, “Poly (ADP-ribose) polymerase (PARP) inhibitors” (Takeda Pharmaceutical Company Limited, priority 2009, dated 2014)
pIC50: −log10 of the molar value.

Experiments:
[1] = target: T1, PARP (Homo sapiens, UniProt P09874); experiment: PARP ELISA (ELISA-based colorimetric PARP/Apoptosis Assay kit, Trevigen); type: biochemical; settings: pIC50=-log10 IC50, IC50 in mol/L; inhibition of PARP catalytic activity
T1 construct: purchased Trevigen 4684-096-K HT (kit); 4684-096-01 (PARP enzyme)
Method in brief: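 Quenched after 10 min catalysis by aspiration and four PBS/0.1% Triton X-100 washes. Poly(ADP-ribose) detected with mouse anti-PAR monoclonal antibody, goat anti-mouse IgG-HRP and HRP substrate; colorimetric signal proportional to PARP catalytic activity.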

[2] = target: T2, catalytic domain of Human PARP (Homo sapiens, UniProt P09874); experiment: Biacore surface plasmon resonance affinity assay; type: binding; settings: pKD=-log10 KD, KD in mol/L; Biacore T100, 25° C.; read-out: pKD (converted)
T2 construct: The catalytic domain of Human PARP was cloned and prepared; made in house
Method in brief: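 Human PARP catalytic domain amine-coupled to CM5 chip; compounds run as 2-fold series in HBS-P with 1% DMSO, 0.5 mM TCEP, 5 mM MgCl2.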

[3] = test system: Jurkat cell line; experiment: PARP cellular chemopotentiation assay (MTS, with/without TMZ); type: cell-based; settings: Chemopotentiation factor: ratio of EC50 values of Jurkat cells co-treated without and with 100 μM TMZ; 96 hours
Method in brief: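 Jurkat cells, 10,000/well, pre-cultured 24 h, then treated 96 h with serial compound dilutions (0.5% DMSO) with or without 100 μM TMZ. Viability by MTS conversion (OD490), normalized to DMSO controls; EC50 from curve fits, PF50 = EC50 without TMZ / EC50 with TMZ.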

T2 sequence (P09874 788-1014 limits assumed): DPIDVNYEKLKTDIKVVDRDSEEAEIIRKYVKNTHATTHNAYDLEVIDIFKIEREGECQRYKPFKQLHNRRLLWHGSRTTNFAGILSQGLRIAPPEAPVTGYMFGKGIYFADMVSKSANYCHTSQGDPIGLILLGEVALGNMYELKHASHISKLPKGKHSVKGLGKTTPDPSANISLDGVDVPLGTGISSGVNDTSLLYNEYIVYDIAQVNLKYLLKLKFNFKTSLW
T1 sequence (P09874 whole entry): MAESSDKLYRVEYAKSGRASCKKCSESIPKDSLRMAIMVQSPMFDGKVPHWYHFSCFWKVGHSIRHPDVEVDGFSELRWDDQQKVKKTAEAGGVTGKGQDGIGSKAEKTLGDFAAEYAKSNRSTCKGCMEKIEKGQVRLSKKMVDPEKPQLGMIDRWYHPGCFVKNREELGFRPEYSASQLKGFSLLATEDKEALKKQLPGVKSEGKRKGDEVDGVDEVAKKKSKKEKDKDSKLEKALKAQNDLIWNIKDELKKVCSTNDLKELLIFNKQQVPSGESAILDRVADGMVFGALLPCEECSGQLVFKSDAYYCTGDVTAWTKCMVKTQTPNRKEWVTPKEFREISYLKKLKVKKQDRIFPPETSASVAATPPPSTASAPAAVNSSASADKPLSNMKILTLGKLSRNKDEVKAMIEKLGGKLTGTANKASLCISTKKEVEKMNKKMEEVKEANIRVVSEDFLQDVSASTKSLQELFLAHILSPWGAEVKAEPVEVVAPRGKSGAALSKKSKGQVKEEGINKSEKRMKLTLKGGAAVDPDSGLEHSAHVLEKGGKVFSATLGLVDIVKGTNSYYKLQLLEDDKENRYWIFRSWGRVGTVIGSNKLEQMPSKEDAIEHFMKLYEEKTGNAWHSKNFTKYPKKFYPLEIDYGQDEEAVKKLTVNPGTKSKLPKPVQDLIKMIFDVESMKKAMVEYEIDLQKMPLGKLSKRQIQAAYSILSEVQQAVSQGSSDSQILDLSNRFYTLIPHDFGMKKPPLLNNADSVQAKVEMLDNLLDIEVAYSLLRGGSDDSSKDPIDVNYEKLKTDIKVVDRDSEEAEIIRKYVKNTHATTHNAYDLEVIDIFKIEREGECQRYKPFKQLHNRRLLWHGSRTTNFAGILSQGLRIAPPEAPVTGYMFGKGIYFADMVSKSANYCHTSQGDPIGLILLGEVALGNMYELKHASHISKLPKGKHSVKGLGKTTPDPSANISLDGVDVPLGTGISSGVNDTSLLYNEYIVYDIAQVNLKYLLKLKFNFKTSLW

pIC50 [1] | Kd [2] [nM] | Structure (SMILES) | PF50 [3]
7.00 to 7.40 | ≤ 10 | CNC(=O)c1ccc(N2CCN(Cc3cc(F)c4c(c3)NC(=O)C(C)O4)CC2)cc1 (stereo not drawn) [Compound 271, 4-(4-((8-Fluoro-2-methyl-3-oxo-3,4-dihydro-2H-benzo[b][1,4]oxazin-6-yl)methyl)piperazin-1-yl)-N-methylbenzamide] | ≦0.9
7.00 to 7.40 | < 31.6 | CCNC(=O)c1ccc(N2CCN(Cc3cc(F)c4c(c3)NC(=O)C(C)O4)CC2)cc1 (stereo not drawn) [Compound 272, N-Ethyl-4-(4-((8-fluoro-2-methyl-3-oxo-3,4-dihydro-2H-benzo[b][1,4]oxazin-6-yl)methyl)piperazin-1-yl)benzamide] | 1.0-1.9
≥ 7.50 | < 31.6 | CC1Oc2c(F)cc(CN3CCN(c4ccc(C(=O)NC5CC5)cc4)CC3)cc2NC1=O (stereo not drawn) [Compound 273, N-Cyclopropyl-4-(4-((8-fluoro-2-methyl-3-oxo-3,4-dihydro-2H-benzo[b][1,4]oxazin-6-yl)methyl)piperazin-1-yl)benzamide] | ≦0.9
